What is called Kd is the concentration at which binding is half-saturated.

Like-named read-outs stand apart in the source and are kept apart here.

The source of these data is patent publication US20260355182A1, “ISOQUINOLINE DERIVATIVE, SYNTHESIS METHOD THEREFOR, AND USE THEREOF” (Harbin Gloria Pharmaceuticals Co., Ltd., priority 2023, published 2026).

The test system of test [1] is SK-N-SH cells (Pgk1 knockdown). The experiment in a line: Seahorse mitochondrial respiration in Pgk1-knockdown and normal SK-N-SH cells. It counts as cell-based, human. Conditions: 10 μM.
Protocol: Cellular mitochondrial stress was detected using a Seahorse XFe analyzer (XFe-24, Seahorse Bioscience, Billerica, MA, UAS) to measure the oxygen consumption rate (OCR). SH-SKN cell lines were seeded in a 24-well plate compatible with the Seahorse XFe analyzer. After 24 hours, cells were treated with DMSO (0.01%) or various drugs (10 μM). Cellular mitochondrial stress was detected 12 hours after drug treatment. For the mitochondrial stress test, 97.2 mL of Seahorse basal medium (Seahorse Bioscience, Billerica, MA, UAS) was taken and heated in a water bath to 37 °C, and 1 mL of a stock solution was added. The stock solution was prepared by mixing the following solutions: 1 mL of 200 mM L-glutamine solution (Sigma), 1 mL of 100 mM pyruvate solution (Sigma), and 800 μL of 2.5 M glucose solution, and the pH of the stock solution was adjusted to 7.4 with 1 M NaOH solution. Before detection, the probe plate was taken out, and 1 mL of XF Carlibrant solution (Seahorse Bioscience) was added to the probe plate. The plate was then incubated overnight in a CO2-free constant temperature incubator at 37 °C. After drug treatment, the cells were removed and washed twice with preheated Seahorse basal medium at 37 °C, ensuring that 500 μL of Seahorse basal medium remained in each well. The cells were incubated in a CO2-free constant temperature incubator at 37 °C for 1 hour. […]
For test [2], the system named is db/db mice. In words: Long-term hypoglycemic and weight-loss effects in db/db mice, drinking water. It counts as in vivo. Conditions: drinking water 7 days. The method, then:
The hypoglycemic effect of the novel isoquinoline derivatives via intraperitoneal injection lasted no more than 6 hours. To determine the long-term hypoglycemic effect of T6, T6 was added to drinking water and administered to mice continuously for one week.
After 7 days of treatment, changes in glycated hemoglobin (HbA1c) level, insulin level in mouse blood, and body weight, were measured.

The target of a further test is T1, Pgk1 (Homo sapiens, UniProt P00558).
T1 sequence (P00558 1-417): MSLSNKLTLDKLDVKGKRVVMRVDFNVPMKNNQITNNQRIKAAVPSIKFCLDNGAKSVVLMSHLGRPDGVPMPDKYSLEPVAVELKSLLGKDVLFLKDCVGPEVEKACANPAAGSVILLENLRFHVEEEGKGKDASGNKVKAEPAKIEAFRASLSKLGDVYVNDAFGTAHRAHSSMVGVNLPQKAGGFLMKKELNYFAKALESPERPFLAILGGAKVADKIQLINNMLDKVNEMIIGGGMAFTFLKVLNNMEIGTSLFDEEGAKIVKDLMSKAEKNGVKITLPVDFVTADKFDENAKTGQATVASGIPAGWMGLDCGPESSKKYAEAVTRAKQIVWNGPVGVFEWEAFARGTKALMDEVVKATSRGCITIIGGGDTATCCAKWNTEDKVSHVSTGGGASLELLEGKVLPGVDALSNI
The experiment in a line: T6 binding affinity with Pgk1 by SPR. Conditions: steady-state affinity model. An excerpt:
Surface plasmon resonance (SPR) was used to measure the interaction between the small molecule T6 and Pgk1. Equilibrium binding responses at increasing T6 concentrations were fitted using a steady-state affinity model. In FIG. 9, diamonds represent the measured response units (RU), and the black curve indicates the fitted binding isotherm. […] The vertical line marks the calculated KD value.
(SPR reads the build-up and loss of mass on a sensor chip optically.)

The next test relates to primary mouse neurons. In words: Cellular status and glucose metabolism-related gene expression in primary mouse neurons. Conditions: normoxic, 72 h, T6 10 PM (so in the source). Type of test: cell-based. The text has this:
In FIG. 10, A) representative bright-field images show the cellular status of primary neurons after treatment. […] The analyzed genes included G6PD, HK2, LDHA, PDK1, PGK1, and SLC2A1/GLUT1. […] TZ treatment produced a similar but generally more moderate metabolic gene-response profile, including increased LDHA, PDK1, and SLC2A1/GLUT1 expression. […] Error bars indicate variation among measurements. […] The results support the use of T6 or related compounds as agents capable of regulating neuronal metabolic status and glucose metabolism-associated pathways.

For the next test, the system named is FUS-525-GFP. In words: Level of ALS-associated mutant FUS-GFP protein in primary mouse neurons (Western blot). As to conditions: 5, 10 or 20 μM. Type of test: cell-based. The method, then:
Primary mouse neurons were engineered to express GFP-tagged mutant FUS-525, an ALS-associated pathogenic FUS variant, and were treated with vehicle control or compound T6 at 5, 10, or 20 μM. Cell lysates were analyzed by Western blotting using antibodies detecting FUS-GFP, with GAPDH serving as a loading control. In FIG. 11, the FUS-GFP fusion protein was detected at approximately 96 kDa, whereas GAPDH was detected at approximately 38 kDa.
A general note: A western blot detects proteins with antibodies after separation by electrophoresis.

Test [3] relates to MPTP-induced Parkinsonian mouse model. The experiment in a line: MPTP-induced Parkinsonian mouse model, rotarod and TH Western blot (T6). Type of test: in vivo. Conditions: T6 0.15, 0.3 and 1.5 mg/kg. The method, then:
Mice were administered MPTP at 20 mg/kg to induce Parkinsonian motor impairment and dopaminergic neuronal injury. […] In FIG. 13, A) motor coordination and endurance were assessed using the rotarod test and are expressed as the time remaining on the rotating rod. […] Actin was used as a loading control. […] Data are presented as mean±error bars, with individual points representing biological replicates. Significance of one-way ANOVA analysis is indicated as P<0.05 (*), P<0.01 (**), and P<0.001 (***).

For the next test, the system named is SOD1G93A transgenic mice. In words: High-copy-number SOD1G93A ALS model mice, body weight and survival. As to conditions: 0.2 mg/kg i.p. once daily from 80 days of age. Type of test: in vivo. The method, then:
High-copy-number SOD1G93A transgenic mice, a genetic model of amyotrophic lateral sclerosis (ALS), were treated with compound T6 or vehicle control beginning at 80 days of age. T6 was administered once daily by intraperitoneal injection at 0.2 mg/kg, and control animals received PBS. Disease-associated slowing of movement was observed beginning at approximately 90 days of age. […] The control group included 7 mice, and the T6-treated group included 5 mice. T6 treatment shifted the survival curve to the right, indicating an extension of survival after initiation of treatment (survival analysis, p=0.072).

Test [4] has as its system db/db mice. In words: Acute glucose-response assay in non-fasted db/db mice. Conditions: s.c., 2 h; TZ 0.5, liraglutide 0.6, T6 0.5 mg/Kg. Type of test: in vivo. The method, then:
The db/db mice were used to evaluate the glucose-lowering activity of compound T6 in comparison with reference metabolic agents (TZ 0.5 mg/Kg, liraglutide 0.6 mg/Kg, T6 0.5 mg/Kg). In FIG. 15, A) for the acute glucose-response assay, drugs were administered to non-fasted db/db mice. Immediately after drug administration (s. c.), mice were deprived of food and water, and blood glucose levels were measured from tail blood samples 2 h later. The relative percentage change in blood glucose was calculated by comparing glucose levels before and after treatment in the same animal. […] HbA1c levels were then measured using a glycated hemoglobin A1c enzyme-linked immunosorbent assay, also referred to as a mouse HbA1c ELISA assay. […] Data are presented as mean±error bars, with individual circles representing individual animals. Statistical significance is indicated as P<0.001 (**) and P<0.0001 (***).

On to `Nc1nc(N2CCN(C(=O)[C@H]3CCCO3)CC2)cc2cc3c(cc12)OCC3` [Compound T6], for which the “Basal and maximum respiratory rate, normal cells” value in test [1] (normal (control) cells) was “activated both the basal respiratory rate and maximum respiratory rate”. For the same compound, in test [1] (shPgk1 knockdown cells), the “Basal and maximum respiratory rate, shPgk1 knockdown cells” value is given as “this activity was absent in shPgk1 knockdown cells”. Also, the “Glycated hemoglobin (HbA1c) level” value in the test on db/db mice [2] (metformin 350 mg/kg, terazosin 0.3 mg/kg, T6 1.5 mg/kg) is on record as “decrease in glycated hemoglobin (HbA1c) level”. Further, in the test on db/db mice [2] (long-term oral administration), the “Long-term hypoglycemic effect versus terazosin and metformin” value is “better hypoglycemic effect than that of terazosin and metformin”. The “Estimated Rmax” value on Pgk1 is 7.799 RU. Further, the Kd at Pgk1 (read-out: KD (approximately)) is ~22.4 µM. On Pgk1 (read-out: KD (fitted dissociation constant)), the dissociation constant (Kd) was found to be 22.4 µM. In addition, the “Relative mRNA expression of G6PD” value with primary mouse neurons (control = 1.0) is “increased”. The Neuronal cellular morphology/status result in the test on primary mouse neurons (TZ 10 μM) was “detectable changes in neuronal cellular morphology/status”. Further, in the test with primary mouse neurons (TZ 10 μM, control = 1.0), the “Relative mRNA expression of HK2” value was “not increased”, the “Relative mRNA expression of LDHA” value is recorded as “increased”, the “Relative mRNA expression of PDK1” value is listed as “increased” and the “Relative mRNA expression of PGK1” value is “only modestly changed”. For the same compound, the “Relative mRNA expression of SLC2A1/GLUT1” value in the test on primary mouse neurons (TZ 10 μM, control = 1.0) is given as “increased”. Further, the “Abundance of mutant FUS-GFP protein” value in the test with FUS-525-GFP is given as “reduced the abundance of mutant FUS-GFP protein”. Moreover, the GAPDH level entry with FUS-525-GFP (loading control) is recorded as “remained largely unchanged”. Also, the Rotarod performance entry in test [3] (MPTP 20 mg/kg) is reported as “improved rotarod performance in MPTP-treated mice, with significant protective effects”. Further, the TH protein abundance entry in test [3] (normalized to actin, vs MPTP alone) was “significantly increased relative TH abundance”. Further, in the test with SOD1G93A transgenic mice (vs PBS), the Survival entry is reported as “delayed mortality”. In addition, the Body weight result in the test with SOD1G93A transgenic mice (81 to 123 days of age) is recorded as “maintained body weight more effectively”. In addition, the “Acute change in blood glucose” value in the test with db/db mice [4] was “marked reduction in blood glucose”.
